Our source for the EC50, IC50 and outcome values is PubChem BioAssay AID179 (DTP/NCI, 2004).

This assay relates to CEM cells HIV-1 protection, formazan growth assay. As to the kind of experiment: NCI AIDS Antiviral Assay. The conditions noted are these: for IC50: measured here: growth of uninfected CEM cells. A digest of the protocol: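 Human CEM cells, uninfected and HIV-1-infected, received five drug concentrations, and growth was read by soluble formazan assay. Compounds giving at least 50% protection were retested; reproducible 100% protection defined confirmed active.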

Each structure is given as a SMILES string. The source made the active and inactive calls.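 How the source made its calls: active means compounds giving half or more protection of infected cells from virus-caused growth loss, again on retest; inactive means the rest.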 Where a SMILES comes first, the peptide text is derived from it. Bridges are numbered along the chain shown (N, C = ends). [ ]: non-standard residue; d: D form. The star is where a group is joined. ξ: configuration not given here. PhAc = O=C(Cc1ccccc1)*; ξP = O=C(O)C1CCCN1

As for `O=C(Cc1ccccc1)N[C@@H]1COC(=O)C2CCCN2C(=O)[C@@H]2CCCN2C1=O` (stereo not given in full) (PhAc-[dS]-Pro-[ξP]; ester 1-C), the EC50 was above 200 µM and the IC50 was above 200 µM. Regarding `CN(C)CCNC(=O)Cn1cnc2cccc([N+](=O)[O-])c2c1=O`, the EC50 was above 200 µM and the IC50 was above 200 µM. For `c1ccc([P+](Cc2cccc3c2Cc2ccccc2-3)(c2ccccc2)c2ccccc2)cc1`, the EC50 was above 200 µM and the IC50 was 0.891 µM. On to `CC1=C(C(=O)N[C@@H](Cc2ccccc2)C(=O)O)N2C(=O)[C@@H](NC(=O)[C@@H](N)CC(C)C)[C@H]2SC1`, for which the EC50 is 174 µM and the IC50 was above 200 µM. The matching figures for `C/C(=N\NC(=O)c1cccc2c(=O)c3ccccc3[nH]c12)C1CC[C@H]2[C@@H]3CCC4=C/C(=N\NC(=O)c5cccc6c(=O)c7ccccc7[nH]c56)CC[C@]4(C)[C@H]3CC[C@]12C` (stereo not given in full): above 50.1 µM and above 50.1 µM. For the molecule `COC1=CC(=O)[C@@]2(OC)C(=O)c3c(cc4cc(O)c(C(O)OC)c(C)c4c3O)C(=O)[C@@]2(O)C1OC1OC(C)C(OC)C(OC)C1OC` (stereo not given in full), the EC50 is above 93.3 µM and the IC50 was determined as 64.6 µM. With `Nc1sc(=S)nc2[nH]ncc12`, the EC50 was above 200 µM and the IC50 is above 200 µM. As for `CC(C)(C)C1C2N1C1(c3ccccc3)OC2(c2ccccc2)c2ccccc21` (stereo not given), the EC50 is above 10.2 µM and the IC50 was above 10.2 µM. Regarding `COc1ccc(/C=C/CN(C)CCc2ccccc2)cc1OC`, the result was inactive. For the molecule `CC(C)(C)OC(=O)NCC(C#N)CNC(=O)OC(C)(C)C`, the EC50 was above 603 µM and the IC50 was above 603 µM. Regarding `Cc1ccc(C(=O)N2c3ccccc3N(C)n3cccc3C2CC(=O)O)cc1` (stereo not given), the EC50 is above 661 µM and the IC50 was determined as 148 µM. In the case of `C=C1C(=O)O[C@H]2C3OC3(C)CC/C=C(/C(=O)OC)[C@@H](OC(C)=O)[C@H](OC(=O)C3(C)OC3C)[C@H]12` (stereo not given in full), the result was inactive. Consider `C[C@]12C(=O)OC[C@H](c3ccccc3)N1C(=O)N(Cc1ccccc1)[C@@H]2CO`, for which the EC50 was above 200 µM and the IC50 was above 200 µM. On to `CNC(=O)CN(CC(N)=O)C(N)=O`, for which the EC50 is above 191 µM and the IC50 is above 191 µM. Take `C[C@]12CCCC(=O)C1C[C@H](C(=O)O)CC2` (stereo not given in full): the result was inactive. As to `COc1ccc(C2=CC(C(C)=C(C(N)=O)C(N)=O)C=C(c3ccc(Br)cc3)C2)c(OC)c1` (stereo not given), the EC50 was above 200 µM and the IC50 worked out at 75.9 µM. The matching figures for `O=C1C(c2ccccc2)CS(=O)(=O)CC1c1ccccc1` (stereo not given): above 120 µM and 36.3 µM. For the molecule `Cc1ccc(OCC2OC(n3cnc4c(Cl)nc(N)nc43)CC2Oc2ccc(C)cc2)cc1` (stereo not given), the EC50 is above 200 µM and the IC50 is 66.1 µM. With `c1ccc(CCN(CCc2ccccn2)CCc2ccccn2)cc1`, the outcome was inactive.

Turning to `CCCc1cc(=O)oc2c3c(cc(OC(C)C)c12)O[C@H](C)[C@H](C)[C@@H]3O`, the EC50 was above 200 µM and the IC50 was determined as 49 µM. For `Cc1ccc(Oc2ccc([N+](=O)[O-])cc2[N+](=O)[O-])c(C)c1`, the result was inactive. On to `O=S(=O)(Nc1nc2ccccc2n1S(=O)(=O)c1ccccc1)c1ccccc1`, for which the EC50 was 81.3 µM and the IC50 was 97.7 µM. Regarding `CC(=O)CC(c1ccc2c(c1)OCO2)c1c(O)c2ccccc2oc1=O` (stereo not given), the EC50 is above 200 µM and the IC50 amounted to 135 µM. The corresponding values for `O=C1/C(=C/c2cccc(F)c2)Cc2ccccc21` are above 30.2 µM and above 30.2 µM. The matching figures for `OC1=CN=COc2ccccc21`: above 813 µM and 479 µM. Consider `Cc1ccc(/C=C2\Cc3c(C)cc(C)cc3C2=O)c(C(=O)O)c1`, for which the EC50 was above 200 µM and the IC50 was found to be 85.1 µM. Take `CCOC(=O)/C(C#N)=C/c1ccc(N(C)C)cc1`: the EC50 is above 77.6 µM and the concentration for half-maximal inhibition (IC50) was above 77.6 µM. With `CN1C2CCC1CC(C)(O)C2` (stereo not given), the EC50 was above 200 µM and the IC50 is above 200 µM.

For `CCc1ccc(/C(C)=N/NC(N)=S)cc1`, the result was inactive. `COC(=O)NC(=O)c1cn(C2OC(CO)C(O)C2O)c(=O)[nH]c1=O` (stereo not given): the EC50 is above 724 µM and the IC50 was above 724 µM.

With `CC(=O)Nc1cc(OCC(=O)O)ccc1S(=O)(=O)c1ccc(OCC(=O)O)cc1NC(C)=O`, the EC50 was above 200 µM and the 50% inhibitory concentration (IC50) was above 200 µM.

Regarding `O=C(O)c1cc(=O)c2[nH]c3ccccc3c2s1`, the result was inactive.

`CC(C)(C)SSCC(N)C(=O)O` (stereo not given): the EC50 is above 200 µM and the IC50 was above 200 µM. `C=C1CC(C)(COc2ccc3c(C)c(C)c(=O)oc3c2C)OC1=O` (stereo not given): the EC50 was above 2 µM and the IC50 was 0.891 µM.

In the case of `O=COC1CC(n2ccc(=O)[nH]c2=O)OC1CO` (stereo not given), the EC50 was above 4570 µM and the IC50 worked out at 263 µM. The corresponding values for `COc1cc(C2c3cc4c(cc3C(=O)C3CCC(=O)N32)OCO4)cc(OC)c1O` (stereo not given) are above 50.1 µM and 27.5 µM. As for `Cc1ccc(C(=O)NC2C(=O)NC(C(C)C)C(=O)N3CCCC3C(=O)N(C)CC(=O)N(C)C(C(C)C)C(=O)OC2C)c2c1Oc1c(c(C(=O)NC3C(=O)NC(C(C)C)C(=O)N4CCCC4C(=O)N(C)CC(=O)N(C)C(C(C)C)C(=O)OC3C)c3nc(-c4ccccc4)c(=O)oc3c1C)N2` (stereo not given), the EC50 is above 19.1 µM and the IC50 came to 0.00794 µM. For `CC1(C)OC(=O)C(CC(=O)O)O1` (stereo not given), the result was inactive. `CCOC(=O)/C(=C\c1cccc(C(F)(F)F)c1)[Se]c1ccccc1`: the EC50 is above 18.2 µM and the IC50 was above 18.2 µM. For `CC(=O)Nc1ccc2[nH]c(C(=O)N3CC(CCl)c4c3cc(N)c3ccccc43)cc2c1` (stereo not given), the EC50 was above 0.2 µM and the IC50 amounted to 0.00933 µM. The corresponding values for `c1ccc2c(c1)NC1=C(CSCC1)c1nncn1-2` are above 200 µM and above 200 µM. The matching figures for `COc1ccc2nc3cc([N+](=O)[O-])ccc3c(NCCO)c2c1`: above 200 µM and 1.05 µM. Take `CCN1CCOC(c2ccccc2)C1c1ccccc1` (stereo not given): the EC50 was above 200 µM and the IC50 was found to be 129 µM. With `N#CC(C#N)=C(C(C#N)C#N)C(C#N)C#N`, the result was inactive. For the molecule `N[C@H]1CCc2c1nc1c(c2-c2ccccc2)CC[C@@H]1N`, the EC50 was above 200 µM and the IC50 amounted to 83.2 µM. Consider `N#CCCN(CCCCN(CCC#N)C(=O)Nc1ccccc1)C(=O)Nc1ccccc1`, for which the EC50 is above 200 µM and the IC50 is above 200 µM. On to `O=C1c2ccccc2-c2c1c1ccccc1c(=O)n2Cc1ccco1`, for which the EC50 is above 11.5 µM and the IC50 is above 11.5 µM. Regarding `Nc1c(CCc2ccccn2)ccc2ccccc12`, the EC50 is above 200 µM and the IC50 was found to be 166 µM. For `CCn1c(=O)nc2n(-c3ccc(SC)cc3)c3ccccc3nc-2c1=O`, the outcome was inactive. Consider `[pH]1p2[pH]p3p1p3[pH]2.c1cc[c]([Ge]([c]2ccccc2)[c]2ccccc2)cc1.c1cc[c]([Ge]([c]2ccccc2)[c]2ccccc2)cc1.c1cc[c]([Ge]([c]2ccccc2)[c]2ccccc2)cc1`, for which the result was inactive.

For `COc1c(C(=O)O)cccc1-c1cccc(C(=O)NCCN(CCNC(=O)c2cccc(-c3cccc(C(=O)O)c3OC)c2OC)CCNC(=O)c2cccc(-c3cccc(C(=O)O)c3OC)c2OC)c1OC`, the EC50 is above 200 µM and the IC50 is above 200 µM.

As for `COc1cccc(C2CC23C(=O)NC(=O)NC3=O)c1` (stereo not given), the EC50 was above 100 µM and the IC50 is above 100 µM. For the molecule `O=[N+]([O-])c1ccc2c(c1)/C(=N/N=C1c3ccccc3Cc3ccccc31)c1cc([N+](=O)[O-])cc([N+](=O)[O-])c1-2`, the outcome was inactive. Regarding `CN(C)CCCN1C(=O)CCC(=O)Nc2ccccc2-c2ccccc21`, the outcome was inactive. For the molecule `O=C1CCSSCCC(=O)NCCN1`, the EC50 is above 22.4 µM and the IC50 was above 22.4 µM. Consider `S=C(SSSSC(=S)N(C1CCCCC1)C1CCCCC1)N(C1CCCCC1)C1CCCCC1`, for which the EC50 is above 200 µM and the IC50 is 126 µM. With `CCCCNC(=O)CCN(C(=O)O)S(=O)(=O)c1ccc(NC(=O)c2ccccc2)cc1`, the EC50 is above 112 µM and the IC50 was above 112 µM. In the case of `Cc1ccc(S(=O)(=O)N2CCCN(S(=O)(=O)c3ccc(C)cc3)CC2)cc1`, the EC50 was above 45.7 µM and the IC50 is above 45.7 µM. Take `Nn1c(=O)n(Cc2ccccc2)n(-c2ccccc2)c1=O`: the outcome was inactive. `CCOC(=O)C(NC(=O)c1cccc(Cl)c1)(Nc1ccc(S(=O)(=O)Nc2cc(C)on2)cc1)C(F)(F)F` (stereo not given): the EC50 is above 200 µM and the IC50 came out at 155 µM. Turning to `CCOCCOCCOCOCCOCCOCC`, the EC50 was above 200 µM and the IC50 was above 200 µM.

For the molecule `O=C(OC/C=C1C=C(OC(=O)c2ccccc2)/C(=N/N(C(=O)c2ccccc2)c2ccccc2)O\1)c1ccccc1`, the EC50 is above 200 µM and the IC50 was found to be 11 µM. Take `COc1c2c(cc3ccc(=O)oc13)CCO2`: the EC50 is above 204 µM and the IC50 is above 204 µM. Consider `COC(=O)/C=C(\C(=O)OC)c1c(C)c(C)c2c(C)cc(C)cc(C)c1-2`, for which the EC50 is above 200 µM and the IC50 was found to be 16.6 µM. Take `O=NN1C(c2ccccc2)CC(=NO)CC1c1ccccc1` (stereo not given): the EC50 is above 200 µM and the IC50 stood at 129 µM.

Consider `O=C1/C(=C(/Br)I)c2ccccc2-c2ccccc21`, for which the EC50 was above 200 µM and the IC50 was found to be 8.32 µM. As for `Cc1c(C)c2ccc(O)cc2[nH]c1=O`, the EC50 was above 200 µM and the IC50 was 182 µM. `CSc1nc(NC2OC(COC(C)=O)C(OC(C)=O)C(OC(C)=O)C2OC(C)=O)c(N=C(C)C(C)=O)c(=O)n1C` (stereo not given): the result was inactive. Regarding `COc1cc(OC)c(/C=N\Nc2nc3ccccc3c(=O)n2-c2ccccc2)c(OC)c1`, the EC50 was above 50.1 µM and the IC50 turned out to be 37.2 µM. Turning to `N#C/C(=C\c1ccccc1Cl)C(=O)c1ccccc1`, the EC50 is above 132 µM and the concentration for half-maximal inhibition (IC50) is 13.2 µM.
